Key:
Format in all cases: binding
14-3-3σ/C-RAF259 [1] = molecular target: T1, 14-3-3σ/C-RAF259 (Homo sapiens, UniProt P31947); assay: Intact mass spectrometry assay with C-RAF259 phospho-peptide; parameters: full-length for mass spectrometry and fluorescence anisotropy assays; made in house; host or cells: E. coli Rosetta 2(DE3)pLysS (14-3-3σ); peptides from Elim Biopharmaceuticals; conditions: 1 μM compound, 100 nM 14-3-3σ, 18 µM peptide
Protocol: (§1) In analogy to our previous work, two orthogonal assays were used for screening (Figure S2). […] Dose responses of compounds were performed in the absence and presence of the C-RAF259 phospho-peptide to distinguish between neutral binders and cooperative molecular glues. The experiment was performed as a time course, with measurements every 8 h, after an 1 h incubation. Additionally, the compounds were tested in a fluorescence anisotropy (FA) assay in the presence of the 5-carboxyfluorescein-(FAM)-labeled C-RAF259 peptide. […] The full dose–response data for all compounds are available in the SI (Tables S2–S5, Figures S5–S8, Figures S15–S18, Figures S25–S32, Figures S37–S39). The dose–response data from both assays were also visually compared in the form of bar graphs. […] For FA experiments, the EC50 values from the overnight measurement were calculated and plotted as bar graphs showing the […] log EC50 value (pEC50). Compounds acting as MGs were expected to show increases in both types of bar graphs.
(§2) transferred in the assay plates.
(§3) The reacton mixtures were incubated
(§4) dispensed in the assay plates.
(§5) incubaton at room temperature .

14-3-3σ = molecular target: T2, 14-3-3σ (Homo sapiens, UniProt P31947); assay: Intact mass spectrometry assay, apo (no peptide); parameters: full-length for mass spectrometry and fluorescence anisotropy assays; made in house; host or cells: E. coli Rosetta 2(DE3)pLysS, pPROEX HTb vector; conditions: 1 μM compound, 100 nM 14-3-3σ
T2 sequence (P31947 1-248): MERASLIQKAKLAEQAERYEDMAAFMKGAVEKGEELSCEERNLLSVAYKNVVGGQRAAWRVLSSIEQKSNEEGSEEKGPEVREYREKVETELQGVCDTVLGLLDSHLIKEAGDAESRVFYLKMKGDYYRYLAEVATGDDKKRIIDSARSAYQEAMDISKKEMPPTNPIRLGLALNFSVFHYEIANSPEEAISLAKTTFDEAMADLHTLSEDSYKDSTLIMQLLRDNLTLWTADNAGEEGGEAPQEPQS
Protocol: as §1, §2, §3, §4, §5

14-3-3σ/C-RAF259 [2] = molecular target: T1, 14-3-3σ/C-RAF259; assay: Fluorescence anisotropy (FA) compound titration; conditions: 10 nM C-RAF259-FAM 10-mer, 5 μΜ 14-3-3σ, overnight; for EC50: read-out: Compound titrations EC50 value C-RAF259
Protocol: as §1, §2, §3, §4, §5

SMILES	% bound, C-RAF259 (11mer), 1h (14-3-3σ/C-RAF259 [1])	% bound, C-RAF259 (11mer), 8h (14-3-3σ/C-RAF259 [1])	% bound, C-RAF259 (11mer), 16h (14-3-3σ/C-RAF259 [1])	% bound, C-RAF259 (11mer), 24h (14-3-3σ/C-RAF259 [1])	% bound, APO, 1h (14-3-3σ)	% bound, APO, 8h (14-3-3σ)	% bound, APO, 16h (14-3-3σ)	% bound, APO, 24h (14-3-3σ)	EC50 (14-3-3σ/C-RAF259 [2])	Compound titrations EC50 value C-RAF259 (14-3-3σ/C-RAF259 [2])
O=C(CCl)N1CC[C@]2(CCN(S(=O)(=O)c3ccc(Br)c(F)c3)C2)C1 [Compound 89]	43%	65.8%	82%	–	5.6%	14.5%	36.2%	53.9%	> 250 µM	–
O=C(CCl)NCC1CCN(S(=O)(=O)c2cccc(C(F)(F)F)c2)CC1 [Compound 17]	1.9%	3.4%	6.5%	12.3%	0%	0%	0.5%	0.9%	> 150 µM	–
O=C(CCl)NCC1CCN(S(=O)(=O)c2ccccc2)CC1 [Compound 10]	4.7%	5.6%	5.7%	13%	4.7%	4.7%	4.7%	4.7%	66 ± 4 µM	–
O=C(CCl)N1CC2(CCN(S(=O)(=O)c3ccc(Br)c(F)c3)CC2)C1 [Compound 49]	11.1%	32.4%	53.8%	86.6%	1.9%	5.2%	13.8%	15.9%	47 ± 4 µM	–
COc1ccc(S(=O)(=O)N2CCC(CNC(=O)CCl)CC2)cc1 [Compound 25]	10.6%	15%	27.1%	44.4%	0.5%	1.9%	7.4%	13.8%	57 ± 9 µM	–
O=C(CCl)NCC1CCN(S(=O)(=O)c2ccc(Br)c(F)c2)CC1 [Compound 37]	–	–	–	–	–	–	–	–	5 ± 1 µM	–
O=C(CCl)NCC1CCN(S(=O)(=O)c2ccc3c(c2)OCO3)CC1 [Compound 26]	4.3%	11.3%	22.6%	34.1%	0%	0%	1.9%	5.2%	26 ± 3 µM	–
O=C(CCl)NCC1CCN(S(=O)(=O)Cc2ccccc2)CC1 [Compound 6]	0.9%	2.9%	6.5%	7%	0%	1%	4.7%	4.7%	> 1000 µM	–
O=C(CCl)N1CC2(C1)CN(S(=O)(=O)c1ccc(C(F)(F)F)c(F)c1)CCO2 [Compound 80]	–	–	–	–	–	–	–	–	9 ± 2 µM	–
O=C(CCl)NCC1CCN(S(=O)(=O)c2ccccc2F)CC1 [Compound 15]	3.3%	8.2%	13.7%	23.3%	0.5%	1.9%	2.4%	2.4%	87 ± 9 µM	–
N#Cc1ccc(S(=O)(=O)N2CCC(CNC(=O)CCl)CC2)cc1 [Compound 20]	4.7%	12.1%	23.9%	42.3%	0%	0.5%	1.5%	2.9%	> 150 µM	–
O=C(CCl)NCC1CCN(S(=O)(=O)C2CCC3(CC2)CC3(F)F)CC1 (centres unmarked) [Compound 34]	0.5%	0.9%	0.9%	3.8%	0%	0.5%	0.9%	0.9%	> 1000 µM	–
O=C(CCl)N1CC2(CCCN(S(=O)(=O)c3ccc(Br)c(F)c3)C2)C1 [Compound 83]	–	–	–	–	–	–	–	–	5 ± 2 µM	–
O=C(CCl)N1CC2(CC(NS(=O)(=O)c3ccc(Br)c(F)c3)CO2)C1 (centres unmarked) [Compound 67]	15%	30.4%	55.6%	81.5%	2.9%	9.1%	15.9%	23%	14 ± 1 µM	–
C=C(F)C(=O)N1CC2(CCN(S(=O)(=O)c3ccc(Br)c(F)c3)CC2(F)F)C1 [Compound 75]	0%	0%	0%	2.9%	0%	0%	0%	0%	> 1000 µM	completely inactive

Second part, the molecule after the results:

% bound, C-RAF259 (11mer), 1h (14-3-3σ/C-RAF259 [1])	% bound, C-RAF259 (11mer), 8h (14-3-3σ/C-RAF259 [1])	% bound, C-RAF259 (11mer), 16h (14-3-3σ/C-RAF259 [1])	% bound, C-RAF259 (11mer), 24h (14-3-3σ/C-RAF259 [1])	% bound, APO, 1h (14-3-3σ)	% bound, APO, 8h (14-3-3σ)	% bound, APO, 16h (14-3-3σ)	% bound, APO, 24h (14-3-3σ)	EC50 (14-3-3σ/C-RAF259 [2])	Compound titrations EC50 value C-RAF259 (14-3-3σ/C-RAF259 [2])	SMILES
25%	45.1%	64.3%	80.2%	2.9%	11.3%	18.5%	28.6%	94 ± 9 µM	–	O=C(CCl)N1CC2(CCN(S(=O)(=O)c3ccc(Br)c(F)c3)CC2(F)F)C1 [Compound 52]
4.3%	15.2%	27.5%	40%	1.9%	4.7%	6.5%	9.1%	88 ± 2 µM	–	O=C(CCl)NCC1CCN(S(=O)(=O)c2ccc(F)c(F)c2)CC1 [Compound 28]
3.3%	8.2%	18%	32.4%	0%	1%	1.9%	2.9%	> 150 µM	–	O=C(CCl)NCC1CCN(S(=O)(=O)c2cccc(F)c2)CC1 [Compound 16]
0%	0%	0%	4.7%	0%	0%	0%	0%	> 1000 µM	completely inactive	O=C(C(Cl)Cl)N1CC2(CCN(S(=O)(=O)c3ccc(Br)c(F)c3)CC2(F)F)C1 [Compound 74]
0%	0%	0%	3.8%	0%	0%	0%	0.5%	> 1000 µM	–	O=C(CCl)NCC1CCN(S(=O)(=O)C2CC3(C2)CC(F)(F)C3)CC1 [Compound 35]
–	–	–	–	–	–	–	–	4 ± 1 µM	–	O=C(CCl)NCC1CCN(S(=O)(=O)c2ccc(C(F)(F)F)c(F)c2)CC1 [Compound 32]
6.1%	9.9%	20.6%	34.6%	0%	0.9%	1.9%	7.4%	> 1000 µM	–	O=C(CCl)NC1CC2(CCN(S(=O)(=O)c3ccc(Br)c(F)c3)CC2)C1 [Compound 55]

Source: PMC12903857
